Target: T1, IRAK3 (Homo sapiens, UniProt Q9Y616)
T1 construct: IRAK Endogenous HTRF Degradation Assay; endogenous in cells
T1 sequence (Q9Y616 1-596): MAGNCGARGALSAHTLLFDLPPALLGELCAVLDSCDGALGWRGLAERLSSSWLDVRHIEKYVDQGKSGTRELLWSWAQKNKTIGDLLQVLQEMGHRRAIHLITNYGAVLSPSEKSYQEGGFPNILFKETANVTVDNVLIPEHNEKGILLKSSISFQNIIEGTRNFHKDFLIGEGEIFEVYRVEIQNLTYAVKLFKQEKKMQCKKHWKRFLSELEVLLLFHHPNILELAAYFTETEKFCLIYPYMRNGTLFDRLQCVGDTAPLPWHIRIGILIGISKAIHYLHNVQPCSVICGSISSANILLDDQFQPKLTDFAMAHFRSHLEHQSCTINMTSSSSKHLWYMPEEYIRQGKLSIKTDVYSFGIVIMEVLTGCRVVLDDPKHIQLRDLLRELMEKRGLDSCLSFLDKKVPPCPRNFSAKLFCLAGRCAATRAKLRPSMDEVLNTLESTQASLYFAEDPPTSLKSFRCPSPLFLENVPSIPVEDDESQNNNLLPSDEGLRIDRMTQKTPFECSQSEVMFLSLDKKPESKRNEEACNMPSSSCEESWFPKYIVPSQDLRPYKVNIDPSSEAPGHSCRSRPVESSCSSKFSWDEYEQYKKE
Test: IRAK3 biochemical binding assay (LanthaScreen Eu Kinase Binding, TR-FRET)
Summary of the method: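 TR-FRET tracer-displacement binding with 10 nM IRAK3, 2 nM Eu-anti-GST antibody and 10 nM tracer in 50 mM HEPES pH 7.4, MgCl2, 1 mM EGTA, 0.01% Brij-35. Compounds in 3-fold dilutions, 1 h at room temperature. 665/615 nm ratio gave % inhibition; IC50 and Hill slope from dose-response fit.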

IC50 [nM]	Compound
12	Cc1cc(-c2cnc(Nc3cnn(C4CCN(CCN5CCN(c6ccc(C7CCC(=O)NC7=O)cc6)CC5)CC4)c3)c3nccn23)ccc1F (stereo not shown) [Compound 33, 3-(4-(4-(2-(4-(4-((5-(4-fluoro-3-methylphenyl)imdazo [1,2-a]pyrazin-8-yl)amino)-1H-pyrazol-1-yl)piperidin-1-yl)ethyl)piperazin-1-yl)phenyl) piperidine-2,6-dione]
1.5	Cc1cc(-c2cnc(Nc3cnn(C4CCN(CCN5CCN(c6ccc(C7CCC(=O)NC7=O)cc6)C[C@@H]5C)CC4)c3)c3nccn23)c(F)cc1F (stereo partly drawn) [Compound 7, 3-(4-((S)-4-(2-(4-(4-((5-(2,4-difluoro-5-methylphenyl)imdazo [1,2-a]pyrazin-8-yl)amino)-1H-pyrazol-1-yl)piperidin-1-yl)ethyl)-3-methylpiperazin-1-yl)phenyl) piperidine-2,6-dione]
1.3	Cc1cc(-c2cnc(Nc3cnn(C4CCN(CCN5CCN(c6ccc(C7CCC(=O)NC7=O)cc6)CC5)CC4)c3)c3nccn23)c(F)cc1F (stereo not shown) [Compound 8, 3-(4-(4-(2-(4-(4-((5-(2,4-difluoro-5-methylphenyl)imidazo[1,2-a]pyrazin-8-yl)amino)-1H-pyrazol-1-yl)piperidin-1-yl)ethyl)piperazin-1-yl)phenyl)piperidine-2,6-dione]
1.3	Cc1cc(-c2cnc(Nc3cnn(C4CCN(CC(=O)N5CCN(c6ccc(C7CCC(=O)NC7=O)cc6)CC5)CC4)c3)c3nccn23)c(F)cc1F (stereo not shown) [Compound 17, 3-(4-(4-(2-(4-(4-((5-(2,4-difluoro-5-methylphenyl)imidazo[1,2-a]pyrazin-8-yl)amino)-1H-pyrazol-1-yl)piperidin-1-yl)acetyl)piperazin-1-yl)phenyl)piperidine-2,6-dione]
1.2	Cc1cc(-c2cnc(Nc3cnn([C@H]4CCN(CCN5CCN(c6ccc(C7CCC(=O)NC7=O)cc6)CC5)C[C@@H]4F)c3)c3nccn23)c(F)cc1F (stereo partly drawn) [Compound 72, 3-(4-(4-(2-((3S,4S)-4-(4-((5-(2,4-difluoro-5-methylphenyl)imdazo [1,2-a]pyrazin-8-yl)amino)-1H-pyrazol-1-yl)-3-fluoropiperidin-1-yl)ethyl)piperazin-1-yl)phenyl) piperidine-2,6-dione]
2	Cc1cc(-c2cnc(Nc3cnn(C4CCN(CCN5CCN(c6ccc([C@@]7(C)CCC(=O)NC7=O)cc6)CC5)CC4)c3)c3nccn23)c(F)cc1F [Compound 77, (R)-3-(4-(4-(2-(4-(4-((5-(2,4-difluoro-5-methylphenyl)imdazo [1,2-a]pyrazin-8-yl)amino)-1H-pyrazol-1-yl)piperidin-1-yl)ethyl)piperazin-1-yl)phenyl)-3-methylpiperidine-2,6-dione]
14	O=C1CCC(c2ccc(N3CCN(CCN4CCC(n5cc(Nc6ncc(-c7ccccc7F)n7ccnc67)cn5)CC4)CC3)cc2)C(=O)N1 (stereo not shown) [Compound 75, 3-(4-(4-(2-(4-(4-((5-(2-fluorophenyl)imidazo [1,2-a]pyrazin-8-yl)amino)-1H-pyrazol-1-yl)piperidin-1-yl)ethyl)piperazin-1-yl)phenyl) piperidine-2,6-dione]

The next lines start with the compound.

Compound	IC50 [nM]
Cc1cc(-c2cnc(Nc3cnn(C4CCN(CC(=O)N5CCN(c6ccc7c(c6)CN(C6CCC(=O)NC6=O)C7=O)CC5)CC4)c3)c3nccn23)c(F)cc1F (stereo not shown) [Compound 10, 3-(5-(4-(2-(4-(4-((5-(2,4-difluoro-5-methylphenyl)imidazo[1,2-a]pyrazin-8-yl)amino)-1H-pyrazol-1-yl)piperidin-1-yl)acetyl)piperazin-1-yl)-1-oxoisoindolin-2-yl)piperidine-2,6-dione]	0.51
Cc1cc(-c2cnc(Nc3cnn([C@H]4CCN(CCN5CCN(c6ccc(C7CCC(=O)NC7=O)cc6)C[C@H]5C)[C@@H](C)C4)c3)c3nccn23)c(F)cc1F (stereo partly drawn) [Compound 35, 3-(4-((R)-4-(2-((2S,4S)-4-(4-((5-(2,4-difluoro-5-methylphenyl)imdazo [1,2-a]pyrazin-8-yl)amino)-1H-pyrazol-1-yl)-2-methylpiperidin-1-yl)ethyl)-3-methylpiperazin-1-yl)phenyl) piperidine-2,6-dione]	0.65
Cc1cccc(-c2cnc(Nc3cnn(C4CCN(CCCN5CCN(c6ccc(C7CCC(=O)NC7=O)cc6)CC5)CC4)c3)c3nccn23)c1 (stereo not shown) [Compound 4, 3-(4-(4-(3-(4-(4-((5-(m-tolyl)imidazo[1,2-a]pyrazin-8-yl)amino)-1H-pyrazol-1-yl)piperidin-1-yl)propyl)piperazin-1-yl)phenyl) piperidine-2,6-dione]	2.3
Cc1cc(-c2cnc(Nc3cnn(C4CCN(CCN5[C@H](C)CN(c6ccc(C7CCC(=O)NC7=O)cc6)C[C@@H]5C)CC4)c3)c3nccn23)c(F)cc1F (stereo partly drawn) [Compound 13, 3-(4-((3S,5R)-4-(2-(4-(4-((5-(2,4-difluoro-5-methylphenyl)imdazo [1,2-a]pyrazin-8-yl)amino)-1H-pyrazol-1-yl)piperidin-1-yl)ethyl)-3,5-dimethylpiperazin-1-yl)phenyl) piperidine-2,6-dione]	1.3
Cc1cccc(-c2cnc(Nc3cnn(C4CCN(CC(=O)N5CCN(c6ccc7c(c6)C(=O)N(C6CCC(=O)NC6=O)C7)CC5)CC4)c3)c3nccn23)c1 (stereo not shown) [Compound 16, 3-(1-oxo-6-(4-(2-(4-(4-((5-(m-tolyl)imidazo[1,2-a]pyrazin-8-yl)amino)-1H-pyrazol-1-yl)piperidin-1-yl)acetyl)piperazin-1-yl)isoindolin-2-yl)piperidine-2,6-dione]	1.5
Cc1cc(-c2cnc(Nc3cnn(C4CCN(CC(=O)N5CCN(c6ccc7c(c6)C(=O)N(C6CCC(=O)NC6=O)C7=O)CC5)CC4)c3)c3nccn23)c(F)cc1F (stereo not shown) [Compound 6, 5-(4-(2-(4-(4-((5-(2,4-difluoro-5-methylphenyl)imidazo[1,2-a]pyrazin-8-yl)amino)-1H-pyrazol-1-yl)piperidin-1-yl)acetyl)piperazin-1-yl)-2-(2,6-dioxopiperidin-3-yl)isoindoline-1,3-dione]	1

Reference: US20260216347A1, “Substituted Imidazo-Based Compounds as Ligand Directed Degraders of IRAK3” (Celgene Corporation, priority 2022, published 2026)
